Results: publication PMC10536928, “Discovery of New Pyrrolo[2,3-d]pyrimidine Derivatives as Potential Multi-Targeted Kinase Inhibitors and Apoptosis Inducers” (Pharmaceuticals, 2023)

Tests used:
HepG2 cells = test: Cell cycle analysis (propidium iodide flow cytometry); type: cell-based
Excerpt: The objective of the study was to evaluate the influence of the synthesized compounds on the progression of the cell cycle in HepG2 cells.
The observed modifications in cell cycle distribution following drug treatment indicate a potential mechanism of action involving cell cycle arrest, a commonly employed therapeutic strategy for suppressing cancer cell proliferation. By impeding cells in the G0–G1 phase, drugs can effectively prevent them from proceeding to the S phase, where DNA replication takes place, and ultimately lead to cell death. […] The cell cycle distribution index (CDI) is a metric that quantifies the rate of cell proliferation and can be derived from the percentage of cells in each phase of the cell cycle. The CDI was calculated using the formula: CDI = (G2/M + S)/[…], wherein G0/G1, S, and G2/M denote the percentages of cells in the respective phases of the cell cycle. The CDI values for the control and compound 5k were determined to be 1.35 and 1.03, respectively.
To investigate the impact of the synthesized compound 5k on cell cycle progression, the ab139418 Propidium Iodide flow cytometry kit/BD was utilized. Initially, HepG2 cells were seeded in triplicate at a density of 2 × 10^5 cells per well in 6-well plates and incubated for 24 h. […] Following treatment, the HepG2 cells were fixed with 70% ethanol and incubated for 12 h at 4 °C. Subsequently, the wells were washed with cold PBS, treated with RNase A (100 µL) at 37 °C for 30 min, and stained with Propidium Iodide (400 µL) in a dark environment at room temperature for another 30 min. The labeled cells were then analyzed using the Epics XLMCL™ flow cytometer equipment (Beckman Coulter, Apeldoorn, the Netherlands). Finally, the experimental results were analyzed using Turku Centre for Biotechnology software version 2.5.1 (Turku, Finland).

[1] = test system: epithelioid cervix carcinoma (HeLa); test: MTT cytotoxicity assay; type: cell-based; conditions: Homo sapiens, 24 h exposure, mean ± SD of triplicate
VEGFR2 = molecular target: T1, VEGFR2 (Homo sapiens, UniProt P35968); test: In vitro protein kinase inhibition assay (ELISA kit); type: biochemical; conditions: triplicate
T1 construct: purchased
Experimental: (§1) In accordance with the documented procedures, fifteen derivatives of the synthesized compounds were evaluated for their inhibitory effects on EGFR, VEGFR-2, Her2, and CDK2 using specific human ELISA kits (Enzyme-Linked Immunosorbent Assay) designed for each respective kinase enzyme. Initially, various concentrations of the synthesized compounds were combined with specific antibodies for each enzyme in individual wells of a 96-well plate, followed by incubation at room temperature for 2.5 h. Subsequently, the plate was washed, and a biotin antibody (100 µL), prepared in-house, was added and allowed to incubate at ambient temperature for 1 h. After another washing step, a solution of streptavidin (100 µL) was introduced to each well and left for 45 min at room temperature. Following a third round of washing, a TMB Substrate (100 µL) reagent was applied to all wells and incubated for 30 min at room temperature. Finally, the reaction was terminated by adding 50 µL of a stop solution, and the absorbance was directly measured at 450 nm. A standard curve was constructed, illustrating the relationship between concentration (X-axis) and absorbance (Y-axis).

CDK2 = molecular target: T2, CDK2 (Homo sapiens, UniProt P24941); test: as above; type: biochemical; conditions: triplicate
T2 construct: purchased
Experimental: as §1

Her2 = molecular target: T3, Her2 (Homo sapiens, UniProt P04626); test: as above; type: biochemical; conditions: triplicate
T3 construct: purchased
Experimental: as §1

EGFR = molecular target: T4, EGFR (Homo sapiens, UniProt P00533); test: as above; type: biochemical; conditions: triplicate
T4 construct: purchased
Experimental: as §1

[2] = test system: four different cancer cell lines (MCF-7, HepG2, MDA-MB-231, HeLa); test: MTT cytotoxicity assay, range over the four cell lines; type: cell-based; conditions: read-out: IC50 values, range over the tested cancer cell lines
Experimental: (§2) The cytotoxic effects of compounds 5a–m were evaluated using a standard MTT method against four different cancer cell lines, namely mammary gland cancer (MCF-7), hepatocellular carcinoma (HepG2), breast cancer (MDA-MB-231), and epithelioid cervix carcinoma (HeLa). […] These findings highlight the potential of these compounds as candidates for further development as cytotoxic agents for cancer treatment.
(§3) The cytotoxicity of compounds 5a–m was assessed against various cancer cell lines and one normal cell line using the described methodology. In brief, the cells were cultured in 96-well plates with a density of 1.0 × 10^4 cells per well, supplemented with 10% fetal bovine serum (FBS), an antibiotic cocktail, and RPMI 11,640 medium. The cells were then incubated for 48 h with 5% CO2 and 100% relative humidity at 37 °C. […] Following treatment, the addition of 20 µL of MTT solution was added to each well and incubation was continued for another 4 h, after which dimethyl sulfoxide (100 µL) was used to dissolve the resulting insoluble formazan. The absorbance was measured at 570 nm using a BioTek EXL 800 plate reader (Agilent Technologies, CA, USA). By comparing the absorbance of treated samples to untreated samples, the relative cell viability percentage was calculated as (A570 of treated samples/A570 of untreated sample) × 100. The IC50 values were determined based on triplicate measurements.

[3] = test system: breast cancer (MDA-MB-231); test: MTT cytotoxicity assay; type: cell-based; conditions: Homo sapiens, 24 h exposure, mean ± SD of triplicate
Experimental: as §2, §3

[4] = test system: mammary gland cancer (MCF-7); test: MTT cytotoxicity assay; type: cell-based; conditions: 24 h exposure, mean ± SD of triplicate
Experimental: as §2, §3

[5] = test system: hepatocellular carcinoma (HepG2); test: MTT cytotoxicity assay; type: cell-based; conditions: Homo sapiens, 24 h exposure, mean ± SD of triplicate
Experimental: as §2, §3

T3 sequence (P04626 23-1255): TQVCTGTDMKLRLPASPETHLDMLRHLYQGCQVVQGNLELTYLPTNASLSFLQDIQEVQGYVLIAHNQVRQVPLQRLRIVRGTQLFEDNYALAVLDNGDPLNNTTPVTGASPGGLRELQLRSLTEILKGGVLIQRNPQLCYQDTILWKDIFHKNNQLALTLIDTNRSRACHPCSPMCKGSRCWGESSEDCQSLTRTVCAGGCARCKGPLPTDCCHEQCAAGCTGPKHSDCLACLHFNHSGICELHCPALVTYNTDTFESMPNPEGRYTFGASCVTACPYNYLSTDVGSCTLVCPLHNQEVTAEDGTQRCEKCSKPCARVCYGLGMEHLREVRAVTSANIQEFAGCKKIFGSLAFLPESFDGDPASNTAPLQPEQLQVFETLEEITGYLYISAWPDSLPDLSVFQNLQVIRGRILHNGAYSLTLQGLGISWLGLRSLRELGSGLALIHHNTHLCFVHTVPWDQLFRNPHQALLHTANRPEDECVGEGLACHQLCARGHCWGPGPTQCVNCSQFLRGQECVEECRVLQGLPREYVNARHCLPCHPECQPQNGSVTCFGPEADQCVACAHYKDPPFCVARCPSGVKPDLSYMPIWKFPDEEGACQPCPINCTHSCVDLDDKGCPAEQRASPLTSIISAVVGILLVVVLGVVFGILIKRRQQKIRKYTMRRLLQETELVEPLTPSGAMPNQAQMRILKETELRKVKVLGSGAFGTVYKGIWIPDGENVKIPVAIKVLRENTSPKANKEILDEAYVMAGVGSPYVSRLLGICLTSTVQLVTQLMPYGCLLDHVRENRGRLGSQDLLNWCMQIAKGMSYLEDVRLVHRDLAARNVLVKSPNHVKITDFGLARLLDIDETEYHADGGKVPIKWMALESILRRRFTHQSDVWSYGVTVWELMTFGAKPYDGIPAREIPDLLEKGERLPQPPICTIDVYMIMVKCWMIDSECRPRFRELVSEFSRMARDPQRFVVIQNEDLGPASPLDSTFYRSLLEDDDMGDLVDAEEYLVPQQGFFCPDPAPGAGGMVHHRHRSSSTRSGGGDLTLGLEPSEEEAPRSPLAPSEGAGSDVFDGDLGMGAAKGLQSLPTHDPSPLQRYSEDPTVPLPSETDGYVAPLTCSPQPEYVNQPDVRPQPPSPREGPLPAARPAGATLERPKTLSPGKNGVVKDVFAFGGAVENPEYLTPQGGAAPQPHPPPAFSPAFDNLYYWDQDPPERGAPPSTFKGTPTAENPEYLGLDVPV
T1 sequence (P35968 20-1356): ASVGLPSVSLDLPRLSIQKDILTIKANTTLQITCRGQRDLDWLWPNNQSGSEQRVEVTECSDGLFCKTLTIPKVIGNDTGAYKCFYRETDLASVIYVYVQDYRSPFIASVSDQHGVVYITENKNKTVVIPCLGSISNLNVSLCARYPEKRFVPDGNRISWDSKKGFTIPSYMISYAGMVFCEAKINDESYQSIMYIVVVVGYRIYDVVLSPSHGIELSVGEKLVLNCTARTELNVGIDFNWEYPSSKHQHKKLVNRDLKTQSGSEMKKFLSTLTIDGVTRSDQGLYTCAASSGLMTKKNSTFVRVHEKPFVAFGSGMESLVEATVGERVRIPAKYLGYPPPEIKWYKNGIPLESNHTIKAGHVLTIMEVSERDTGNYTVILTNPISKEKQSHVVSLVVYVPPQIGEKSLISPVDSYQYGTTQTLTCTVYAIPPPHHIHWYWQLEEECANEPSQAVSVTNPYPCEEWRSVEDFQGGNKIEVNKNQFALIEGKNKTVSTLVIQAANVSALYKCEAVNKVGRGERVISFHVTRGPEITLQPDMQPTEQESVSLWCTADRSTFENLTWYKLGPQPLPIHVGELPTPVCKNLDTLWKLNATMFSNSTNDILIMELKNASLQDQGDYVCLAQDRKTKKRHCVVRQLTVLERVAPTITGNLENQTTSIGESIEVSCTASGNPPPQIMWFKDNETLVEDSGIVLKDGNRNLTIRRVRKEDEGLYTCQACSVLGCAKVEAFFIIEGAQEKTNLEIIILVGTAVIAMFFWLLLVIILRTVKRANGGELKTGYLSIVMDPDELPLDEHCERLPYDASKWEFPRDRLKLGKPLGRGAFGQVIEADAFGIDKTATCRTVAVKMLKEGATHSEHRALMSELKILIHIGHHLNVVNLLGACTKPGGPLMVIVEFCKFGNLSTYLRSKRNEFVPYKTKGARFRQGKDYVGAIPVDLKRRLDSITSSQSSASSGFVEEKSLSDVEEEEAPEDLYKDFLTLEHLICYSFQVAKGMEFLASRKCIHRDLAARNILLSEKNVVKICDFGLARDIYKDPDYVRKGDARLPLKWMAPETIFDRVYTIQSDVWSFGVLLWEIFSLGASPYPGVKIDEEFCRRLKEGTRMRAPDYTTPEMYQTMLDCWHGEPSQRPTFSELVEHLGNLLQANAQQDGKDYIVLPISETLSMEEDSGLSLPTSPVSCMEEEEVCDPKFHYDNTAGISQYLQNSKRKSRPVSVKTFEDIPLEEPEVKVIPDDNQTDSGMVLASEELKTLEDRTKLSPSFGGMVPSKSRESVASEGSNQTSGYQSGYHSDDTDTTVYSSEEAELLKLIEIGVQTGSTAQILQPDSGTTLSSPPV
T4 sequence (P00533 25-1210): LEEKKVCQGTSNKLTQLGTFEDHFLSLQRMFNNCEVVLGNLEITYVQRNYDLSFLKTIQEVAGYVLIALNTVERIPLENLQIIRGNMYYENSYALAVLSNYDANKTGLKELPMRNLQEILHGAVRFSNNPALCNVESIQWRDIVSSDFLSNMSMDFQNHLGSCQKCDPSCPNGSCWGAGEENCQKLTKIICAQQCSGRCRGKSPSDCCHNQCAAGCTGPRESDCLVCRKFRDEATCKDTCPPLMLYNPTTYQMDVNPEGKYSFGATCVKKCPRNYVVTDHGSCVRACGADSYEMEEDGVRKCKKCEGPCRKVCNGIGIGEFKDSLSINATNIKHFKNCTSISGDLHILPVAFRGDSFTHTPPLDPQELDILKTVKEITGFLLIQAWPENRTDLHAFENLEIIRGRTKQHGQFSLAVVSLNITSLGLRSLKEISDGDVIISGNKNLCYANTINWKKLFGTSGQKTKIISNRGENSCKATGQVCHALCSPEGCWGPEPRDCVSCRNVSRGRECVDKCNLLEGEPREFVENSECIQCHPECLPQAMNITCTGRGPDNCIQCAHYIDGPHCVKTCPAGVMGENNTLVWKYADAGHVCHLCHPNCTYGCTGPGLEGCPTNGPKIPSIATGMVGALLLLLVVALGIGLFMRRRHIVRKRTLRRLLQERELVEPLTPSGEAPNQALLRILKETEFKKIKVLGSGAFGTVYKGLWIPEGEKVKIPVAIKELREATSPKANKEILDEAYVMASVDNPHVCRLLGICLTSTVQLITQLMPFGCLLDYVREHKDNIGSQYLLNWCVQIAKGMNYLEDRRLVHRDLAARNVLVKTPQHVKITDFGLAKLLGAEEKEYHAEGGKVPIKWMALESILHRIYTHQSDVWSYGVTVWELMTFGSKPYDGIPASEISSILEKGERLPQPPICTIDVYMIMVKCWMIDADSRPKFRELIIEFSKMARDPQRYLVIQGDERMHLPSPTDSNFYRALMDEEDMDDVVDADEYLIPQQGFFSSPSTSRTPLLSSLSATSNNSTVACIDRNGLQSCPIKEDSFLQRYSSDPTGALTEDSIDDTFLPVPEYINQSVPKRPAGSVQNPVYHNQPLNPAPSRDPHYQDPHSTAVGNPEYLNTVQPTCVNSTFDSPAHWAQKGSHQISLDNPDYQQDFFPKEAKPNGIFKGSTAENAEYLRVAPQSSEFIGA

## O=C(N/N=C/c1ccc(Cl)c(Cl)c1)c1ccc(Nc2ncnc3[nH]ccc23)cc1 [Compound 5k, (E)-4-((7H-Pyrrolo[2,3-d]pyrimidin-4-yl)amino)-N’-(3,4-dichlorobenzylidene)benzohydrazide]
HepG2 cells; CDI = (G2/M + S)/G0/G1, control 1.35
  Cell Cycle Distribution Index (CDI): 1.03
HepG2 cells; compound at its IC50, 24 h, control 19.38
  DNA Content (%) %G2/M: 18.3%
HepG2 cells; compound at its IC50, 24 h, control 36.76
  DNA Content (%) %S: 32.52%
HepG2 cells; compound at its IC50, 24 h, control 43.86
  DNA Content (%) %G0–G1: 49.18%
[1]
  IC50: 57.8 ± 3.1 µM
VEGFR2
  IC50: 136 nM
CDK2
  IC50: 204 nM
Her2
  IC50: 40 nM
EGFR
  IC50: 79 nM
[2]
  IC50: 29 to 59 µM
[3]
  IC50: 51.4 ± 2.8 µM
[4]
  IC50: 59.1 ± 3.5 µM
[4]; Homo sapiens, MCF7, 24 h
  IC50: 60 µM
[5]
  IC50: 41.5 ± 2.6 µM
